In US9957263B2, “Bromodomain inhibitors” (AbbVie Inc., priority 2013, dated 2018):

What was measured:
[1] = test system: breast cancer cell line MX-1; assay: MX-1 cell line proliferation assay, Method A; format: cell-based; conditions: MX-1 cells, 96-well, 72 hours, Cell Titer Glo; read-out: Cellular proliferation: EC50 Method A
Experimental: (§1) The impact of compounds of the Examples on cancer cell proliferation was determined using the breast cancer cell line MX-1 (ATCC) in a 3-day proliferation assay and the data are reported in Table 1.
For compound testing, MX-1 cells were plated in 96-well black bottom plates at a density of 5000 cells/well in 90 μL of culture media and incubated at 370 overnight to allow cell adhesion and spreading. Compound dilution series were prepared in DMSO via a 3-fold serial dilution from 3 mM to 0.1 μM. The DMSO dilution series were then diluted 1:100 in phosphate buffered saline, and 10 μL of the resulted solution were added to the appropriate wells of the MX-1 cell plate. The final compound concentrations in the wells were 3, 1, 0.3, 0.1, 0.03, 0.01, 0.003, 0.001, 0.0003 and 0.0001 μM.
(§2) Luminescence readings from the Cell Titer Glo assay were normalized to the DMSO treated cells and analyzed using the GraphPad Prism software with sigmoidal curve fitting to obtain EC50s. The minimum significant ratio (MSR) was determined to evaluate assay reproducibility (Eastwood et al., (2006) J Biomol Screen, 11: 253-261).

[2] = target: BRD4 (BDI_K57-E168) (Homo sapiens (Human), UniProt O60885); assay: TR-FRET bromodomain binding assay, BRD4 first bromodomain; conditions: His-tagged BD1, Alexa647-labeled probe 100 nM
Outline: (§3)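 Competition of compound (50 μM-0.85 nM, 2% DMSO) against an Alexa647-labelled BET-inhibitor probe, 100 nM for BDI or 30 nM for BDII, on 8 nM His-BRD4 bromodomain detected by 1 nM Eu-anti-His; 20 mM sodium phosphate pH 6.0, 1 h room temperature. Normalised to unlabelled-probe controls; IC50 converted to Ki.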

[3] = target: BRD4 (BDII_E352-M457) (Homo sapiens (Human), UniProt O60885); assay: TR-FRET bromodomain binding assay, BRD4 second bromodomain; conditions: His-tagged BD2, Alexa647-labeled probe 30 nM
Outline: as §3

[4] = test system: breast cancer cell line MX-1; assay: MX-1 cell line proliferation assay, Method B; format: cell-based; conditions: Homo sapiens, MX1; MX-1 cells, 384-well, 72 hours, Cell Titer Glo; read-out: Cellular proliferation: EC50 Method B
Experimental: as §1
Method B: MX-1 cells were maintained in RPMI 1640 medium (Sigma) supplemented with 10% FBS at 37 C.° and an atmosphere of 5% CO2. For compound testing, MX-1 cells were plated in 384-well white with clear, flat bottom plates at a density of 750 cells/well in 25 μL of culture media and incubated at 370 overnight to allow cell adhesion and spreading. Ten point compound dilution series were prepared in DMSO via a 3-fold serial dilution from either […] or 1 μM stock and added directly to the appropriate wells of the MX-1 cell plate by an ECHO liquid handler (Labcyte). The final compound concentrations in the wells were 10, 3.25, 1, 0.25, 0.124, 0.040, 0.0124, 0.0031, 0.0015 and 0.0005 μM or 1, 0.33, 0.1, 0.025, 0.0124, 0.004, 0.0012, 0.0003, 0.00015, 0.00005 μM, depending on the concentration of the compound stock solution.
as §2, with “Accelrys Assay Explorer 3.3” for “the GraphPad Prism”, “ECsos.” for “EC50s.”, “253-261). The overall MSR was determined to be 3.3 and a moving MSR (last six run MSR overtime) has averaged” for “253-261).”

[5] = test system: LPS induced IL-6 (Interleukin-6) production; assay: LPS (lipopolysaccharide) induced IL-6 production mouse assay; format: in vivo; conditions: CD-1 female mice, oral administration one hour before LPS 2.5 mg/kg intraperitoneal, serum 2 hours after LPS; p value less than 0.05
Experimental: Example 2 was assayed for its ability to inhibit LPS (lipopolysaccharide) induced IL-6 (Interleukin-6) production in mice. CD-1 female mice (Charles River Laboratories, 5 per group) received an intraperitoneal challenge of lipopolysaccharide (2.5 mg/kg, L2630 E. coli 0111:B4) one hour after oral administration of compound or compound vehicle. Mice were euthanized 2 hours after lipopolysaccharide injection, blood was removed by cardiac puncture, and then the serum harvested from the blood samples was frozen at −80 OC. On the day of the assay the serum samples were brought to room temperature and then diluted 1:20 in phosphate-buffered saline containing 2% bovine serum albumin. Interleukin-6 measurements were performed using a cytokine assay from Meso Scale Discovery (Gaithersburg, Md.) for mouse serum analysis according to the manufacturer's protocol and read on a SECTOR Imager 6000 (Meso Scale Discovery, Gaithersburg, Md.) instrument. Statistical analysis was performed using Prism software (version 5.0) incorporating Dunnett's one way ANOVA. The IL-6 mean and standard deviation of the group of vehicle treated animals were compared with the IL-6 mean and standard deviation of the group treated with drug. A p value <0.05 means that there is less than a 5% probability that the mean values in the two groups are equal.

SMILES	EC50 [1] [nM]	Ki [2] [nM]	Ki [3] [nM]	EC50 [4] [nM]	inhibition of LPS induced IL-6 production [5] [%]
COc1ccc(S(=O)(=O)Nc2cccc(Oc3ccc(S(C)(=O)=O)cc3-c3cn(C)c(=O)c4[nH]ccc34)c2)cc1OC [Example 53]	144	–	–	–	–
Cn1cc(-c2cc(S(C)(=O)=O)ccc2NC2CCN(S(=O)(=O)/C=C/c3ccccc3)CC2)c2cc[nH]c2c1=O [Example 102]	67.3	–	–	–	–
Cc1cccc(C)c1Oc1ccc(S(C)(=O)=O)cc1-c1cn(C)c(=O)c2[nH]c(C(=O)NCCCN(C)C3CCCCC3)cc12 [Example 187, N-{3-[cyclohexyl(methyl)amino]propyl}-4-[2-(2,6-dimethylphenoxy)-5-(methylsulfonyl)phenyl]-6-methyl-7-oxo-6,7-dihydro-1H-pyrrolo[2,3-c]pyridine-2-carboxamide]	–	99.8	2.52	290	–
CCNC(=O)c1cc2c(-c3ccc(C(=O)N(CC#N)C(C)Cc4ccccc4)cc3Oc3c(C)cccc3C)cn(C)c(=O)c2[nH]1 (centres unmarked) [Example 166, 4-{4-[(cyanomethyl)(1-phenylpropan-2-yl)carbamoyl]-2-(2,6-dimethylphenoxy)phenyl}-N-ethyl-6-methyl-7-oxo-6,7-dihydro-1H-pyrrolo[2,3-c]pyridine-2-carboxamide]	–	> 12700	17.5	3030	–
CCNC(=O)c1cc2c(-c3ccc(C(=O)N(c4ccccc4)C4CCCCC4)cc3Oc3c(C)cccc3C)cn(C)c(=O)c2[nH]1 [Example 186, 4-{4-[cyclohexyl(phenyl)carbamoyl]-2-(2,6-dimethylphenoxy)phenyl}-N-ethyl-6-methyl-7-oxo-6,7-dihydro-1H-pyrrolo[2,3-c]pyridine-2-carboxamide]	–	> 12700	178	7650	–
CCS(=O)(=O)Nc1cc(-c2cn(C)c(=O)c3[nH]ccc23)c(Oc2ccc(F)cc2F)cc1CN(C)C [Example 2, N-[4-(2,4-difluorophenoxy)-2-[(dimethylamino)methyl]-5-(6-methyl-7-oxo-6,7-dihydro-1H-pyrrolo[2,3-c]pyridin-4-yl)phenyl]ethanesulfonamide]	–	57	4	–	45
CCNC(=O)c1cc2c(-c3ccc(C(=O)N(Cc4ccccc4)Cc4ccc(Cl)cc4)cc3Oc3c(C)cccc3C)cn(C)c(=O)c2[nH]1 [Example 173, 4-{4-[benzyl(4-chlorobenzyl)carbamoyl]-2-(2,6-dimethylphenoxy)phenyl}-N-ethyl-6-methyl-7-oxo-6,7-dihydro-1H-pyrrolo[2,3-c]pyridine-2-carboxamide]	–	> 12700	64.3	5250	–
CCCCN(CCC#N)C(=O)c1ccc(-c2cn(C)c(=O)c3[nH]c(C(=O)NCC)cc23)c(Oc2c(C)cccc2C)c1 [Example 184, 4-{4-[butyl(2-cyanoethyl)carbamoyl]-2-(2,6-dimethylphenoxy)phenyl}-N-ethyl-6-methyl-7-oxo-6,7-dihydro-1H-pyrrolo[2,3-c]pyridine-2-carboxamide]	–	1080	11.1	2840	–
